The record followed here is patent US20260250312A1, “ANTIBACTERIAL COMPOUNDS ELIMINATING DORMANT BACTERIAL CELLS” (UNIVERSITÉ D'AIX-MARSEILLE, priority 2022, published 2026).

Structures are written as SMILES. Converted amounts (≈) assume the structure as drawn. “And” between values parts separate entries of the source, which are not always exact repeats. Equal values may be shown once. Read-outs that look alike come from different tables or passages of the source. Marks after values point to notes of the source that are not given here.

For orientation: IC50 means the point on the concentration scale where inhibition reaches its midpoint.

In test [1] the test system is CHO-K1 cells. The experiment in a line: WST1 cytotoxicity test. The test is classed as cell-based, Chinese hamster. The settings on record: Cricetulus griseus, CHO-K1, 24 h, WST1, 24 hours at 37° C.; read-out: IC50 CHO. The gist of the method:
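CHO-K1 cells pre-cultured 24 h, then exposed 24 h at 37 °C to increasing compound concentrations. Viability read as WST-1 formazan absorbance at 450 nm after 20 min; dose-response fitted by nonlinear regression.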
(Formazan colour is commonly taken as a measure of viable cells.)

Test [2] relates to Staphylococcus aureus (ATCC25923). In words: Microdilution MIC assay (CLSI-based), S. aureus. Type of test: cell-based. The settings on record: Staphylococcus aureus, ATCC25923, 20 h, 20 hours incubation at 35-37° C., MHB; read-out: Minimum inhibitory concentration S. aureus ATCC25923. The gist of the method:
(§1)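 Broth microdilution per modified CLSI guidelines in Mueller Hinton broth, 200 μL, inoculum ca. 5×10^5 CFU/mL; compounds tested as salts, twofold dilutions from 0.2 mg/mL, in triplicate. MIC determined from OD at 620 nm after incubation.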
(In general: Dilution methods test growth across graded concentrations, often in twofold steps.)

The subject of test [3] is Enterococcus faecalis (ATCC29212). The experiment in a line: Microdilution MIC assay (CLSI-based), E. faecalis. The settings on record: Enterococcus faecalis, ATCC29212, 20 h, 20 hours incubation at 35-37° C., MHB; read-out: Minimum inhibitory concentration E. faecalis ATCC29212. Type of test: cell-based. In a few lines: as §1
The subject of test [4] is Pseudomonas aeruginosa (ATCC27853). In words: Microdilution MIC assay (CLSI-based), P. aeruginosa. Type of test: cell-based. The following applies: 20 hours incubation at 35-37° C., MHB; for MIC: Pseudomonas aeruginosa, ATCC27853, 20 h, read-out: Minimum inhibitory concentration P. aeruginosa ATCC27853. In a few lines:
as §1

In test [5] the test system is Escherichia coli (ATCC28922). In words: Microdilution MIC assay (CLSI-based), E. coli. The test is classed as cell-based. The settings on record: 20 hours incubation at 35-37° C., MHB; for MIC: read-out: Minimum inhibitory concentration E. coli ATCC28922. The gist of the method:
as §1

The mark [6] stands for this setting: Escherichia coli, ATCC28922, 20 h.

As for `COC(=O)[C@@H](NC(=O)CC[C@@H](C)[C@H]1CCC2C3C(CC[C@@]21C)[C@@]1(C)CC[C@H](NCCNCCNCCNCCN)C[C@H]1C[C@H]3O)C(C)C` (stereo partly drawn) [Compound S049, methyl ((4R)-4-((3S,5S,7R,10S,13R,17R)-3-((2-((2-((2-((2-aminoethyl)amino)ethyl)amino)ethyl)amino)ethyl)amino)-7-hydroxy-10,13-dimethylhexadecahydro-1H-cyclopenta[a]phenanthren-17-yl)pentanoyl)-L-valinate], in test [1], the IC50 was 94.9 µM and 64.2 µg/mL. Also, the MIC in test [2] was 50 µM and 32 µg/mL; in test [3], 100 µM and 64 µg/mL; in test [4], 100 µM and 64 µg/mL; in test [5] (setting [6]) it was 100 µM and 64 µg/mL.
As for `COC(=O)[C@H](CC(C)C)NC(=O)CC[C@@H](C)[C@H]1CCC2C3C(CC[C@@]21C)[C@@]1(C)CC[C@H](NCCCNCCCCNCCCN)C[C@H]1C[C@H]3O` (stereo partly drawn) [Compound S036, methyl ((4R)-4-((3S,5S,7R,10S,13R,17R)-3-((3-((4-((3-aminopropyl)amino)butyl)amino)propyl)amino)-7-hydroxy-10,13-dimethylhexadecahydro-1H-cyclopenta[a]phenanthren-17-yl)pentanoyl)-L-leucinate], the IC50 in test [1] was 50.5 µM and 35.6 µg/mL. Also, the MIC in test [2] is 50 µM and 32 µg/mL; in test [3], 6.25 µM and 4 µg/mL; in test [4] it was 12.5 µM and 8 µg/mL; in test [5] (setting [6]), 6.25 µM and 4 µg/mL.
`COC(=O)[C@H](NC(=O)CC[C@@H](C)[C@H]1CCC2C3C(CC[C@@]21C)[C@@]1(C)CC[C@H](NCCCCCCN)C[C@H]1C[C@H]3O)C(C)C` (stereo partly drawn) [Compound S023, methyl ((4R)-4-((3S,5S,7R,10S,13R,17R)-3-((6-aminohexyl)amino)-7-hydroxy-10,13-dimethylhexadecahydro-1H-cyclopenta[a]phenanthren-17-yl)pentanoyl)-D-valinate]: the IC50 in test [1] was 48.5 µM and 29.3 µg/mL. In addition, the MIC in test [2] is 50 µM and 32 µg/mL; in test [3] it was 100 µM and 64 µg/mL; in test [4] it was > 200 µM and > 120 µg/mL; in test [5] (setting [6]), 100 µM and 64 µg/mL.
Consider `COC(=O)[C@H](Cc1ccccc1)NC(=O)CC[C@@H](C)[C@H]1CCC2C3C(CC[C@@]21C)[C@@]1(C)CC[C@H](NCCCN(CCCN)CCCN)C[C@H]1C[C@H]3O` (stereo partly drawn) [Compound S037, methyl ((4R)-4-((3S,5S,7R,10S,13R,17R)-3-((3-(bis(3-aminopropyl)amino)propyl)amino)-7-hydroxy-10,13-dimethylhexadecahydro-1H-cyclopenta[a]phenanthren-17-yl)pentanoyl)-L-phenylalaninate], for which the concentration for half-maximal inhibition (IC50) in test [1] was 127 µM and 91.7 µg/mL. Besides, the MIC in test [2] is 6.25 µM and 4 µg/mL; in test [3] it was 6.25 µM and 4 µg/mL; in test [4], 25 µM and 16 µg/mL; in test [5] (setting [6]), 6.25 µM and 4 µg/mL.
In the case of `COC(=O)[C@H](Cc1ccccc1)NC(=O)CC[C@@H](C)[C@H]1CCC2C3C(CC[C@@]21C)[C@@]1(C)CC[C@H](NCCCN)C[C@H]1C[C@H]3O` (stereo partly drawn) [Compound S016, methyl ((4R)-4-((3S,5S,7R,10S,13R,17R)-3-((3-aminopropyl)amino)-7-hydroxy-10,13-dimethylhexadecahydro-1H-cyclopenta[a]phenanthren-17-yl)pentanoyl)-L-phenylalaninate], the IC50 in test [1] is 66 µM and 40.2 µg/mL. Further, the MIC is 12.5 µM and 8 µg/mL in test [2]; 25 µM and 16 µg/mL in test [3]; 50 µM and 32 µg/mL in test [4]; 25 µM and 16 µg/mL in test [5] (setting [6]).
Turning to `COC(=O)CNC(=O)CC[C@@H](C)[C@H]1CCC2C3C(CC[C@@]21C)[C@@]1(C)CC[C@H](NCCCNCCCCNCCCN)C[C@H]1C[C@H]3O` (stereo partly drawn) [Compound S004, methyl ((4R)-4-((3S,5S,7R,10S,13R,17R)-3-((3-((4-((3-aminopropyl)amino)butyl)amino)propyl)amino)-7-hydroxy-10,13-dimethylhexadecahydro-1H-cyclopenta[a]phenanthren-17-yl)pentanoyl)glycinate], in test [1], the IC50 is 51.7 µM and 33.5 µg/mL. Also, the MIC was 6.25 µM and 4 µg/mL in test [2]; 50 µM and 32 µg/mL in test [3]; 100 µM (≈ 64.8 µg/mL) in test [5]. In addition, in test [4], the “Minimum inhibitory concentration P. aeruginosa ATCC27853” value is >200* μM and >128* μg/mL. Besides, the “Minimum inhibitory concentration E. coli ATCC28922” value in test [5] was determined as 64 µg/mL (≈ 98.8 µM).
In the case of `COC(=O)CNC(=O)CC[C@@H](C)[C@H]1CCC2C3C(C[C@H](O)[C@@]21C)[C@@]1(C)CC[C@H](NCCCNCCCCNCCCN)C[C@H]1C[C@H]3O` (stereo partly drawn) [Compound S051, methyl ((4R)-4-((3S,5S,7R,10S,12S,13R,17R)-3-((3-((4-((3-aminopropyl)amino)butyl)amino)propyl)amino)-7,12-dihydroxy-10,13-dimethylhexadecahydro-1H-cyclopenta[a]phenanthren-17-yl)pentanoyl)glycinate], the IC50 in test [1] is 33.3 µM and 22.1 µg/mL. The MIC in test [2] is 6.25 µM and 4 µg/mL; in test [3], 50 µM and 32 µg/mL; in test [4], 25 µM and 16 µg/mL; in test [5] (setting [6]), 25 µM and 16 µg/mL.
Consider `COC(=O)[C@@H](NC(=O)CC[C@@H](C)[C@H]1CC[C@H]2[C@@H]3[C@H](O)C[C@@H]4CC(NCCCNCCCCNCCCN)CC[C@]4(C)[C@H]3CC[C@]12C)C(C)C` (mixture of isomers) [Compound S001, methyl ((4R)-4-((3S,5S,7R,10S,13R,17R)-3-((3-((4-((3-aminopropyl)amino)butyl)amino)propyl)amino)-7-hydroxy-10,13-dimethylhexadecahydro-1H-cyclopenta[a]phenanthren-17-yl)pentanoyl)valinate], for which, in test [1], the half-maximal inhibitory concentration (IC50) is 4.41 µM and 3.04 µg/mL. Also, the MIC in test [2] is 3.12 µM and 2 µg/mL; in test [3], 25 µM and 16 µg/mL; in test [4] it was 12.5 µM and 8 µg/mL; in test [5] (setting [6]), 12.5 µM and 8 µg/mL.
Turning to `COC(=O)[C@H](NC(=O)CC[C@@H](C)[C@H]1CCC2C3C(CC[C@@]21C)[C@@]1(C)CC[C@H](NCCCCCCCCCCN)C[C@H]1C[C@H]3O)C(C)C` (stereo partly drawn) [Compound S009, methyl ((4R)-4-((3S,5S,7R,10S,13R,17R)-3-((10-aminodecyl)amino)-7-hydroxy-10,13-dimethylhexadecahydro-1H-cyclopenta[a]phenanthren-17-yl)pentanoyl)-D-valinate], the IC50 in test [1] is 20 µM and 13.2 µg/mL. Besides, the MIC is 25 µM and 16 µg/mL in test [2]; 25 µM and 16 µg/mL in test [3]; > 200 µM and > 128 µg/mL in test [4]; 200 µM and 128 µg/mL in test [5] (setting [6]).
